This data set is described as follows: logP determination by HPLC (formic acid method). In kind it is physicochemical. The note with it: for chromatographic logP: read-out: logP (HCOOH). Here is the method:
1) Description of the method for determining the logP values (formic acid method)
The logP values given in the table were determined in accordance with EEC Directive 79/831 Annex V.A8 by HPLC (High Performance Liquid Chromatography) on a reversed-phase column (C18). Temperature: 55° C.
Mobile phases for the determination in the acidic range (pH 3.4):
Mobile phase A: Acetonitrile+1 ml of formic acid/litre. Mobile phase B: water+0.9 ml of formic acid/litre.
Gradient: from 10% mobile phase A/90% mobile phase B to 95% mobile phase A/5% mobile phase B in 4.25 min.
Calibration was carried out using unbranched alkan-2-ones (having 3 to 16 carbon atoms) with known logP values (determination of the logP values by the retention times using linear interpolation between two successive alkanones). The lambda max values were determined in the maxima of the chromatographic signals using the UV spectra from 200 nm to 400 nm.

Setting [1] is: reversed-phase HPLC column (C18), pH 3.4, values printed in the text of the preparation examples, formic acid method.
Where [2] appears, read: reversed-phase HPLC column (C18), pH 3.4, HPLC on reversed-phase column (C18), acidic range (pH 3.4), 55° C.
Setting [3] is: pH 3.4, values given in the preparation examples, formic acid method.

Where two headings read alike, the source gives them in different places.

For the compound `CC(=O)c1cc(-c2cccnc2)nn1C`, the chromatographic logP under setting [1] was 0.61.
Turning to `Cn1nc(-c2cccnc2)cc1-c1cncc(C#N)c1` [compound 227], the chromatographic logP under setting [2] is 0.89.
With `CNc1nccc(-c2sc(-c3cccnc3)nc2C)n1` [compound 193], the chromatographic logP under setting [2] turned out to be 1.41.
For the compound `CC(=O)c1nnc(-c2cccnc2)s1` [1-(5-Pyridin-3-yl-[1,3,4]thiadiazol-2-yl)ethanone], the chromatographic logP under setting [1] turned out to be 1.16.
Still for that read-out and setting: for `Cc1nc(-c2cccnc2)sc1-c1cccc(C(N)=S)n1` [6-(4-Methyl-2-pyridin-3-ylthiazol-5-yl)pyridine-2-carbothioamide] the value was 2.13; for `O=C(NO)c1cccc(Br)n1` [6-Bromopyridine-2-carboxylic acid hydroxyamide], 0.69.
As to `Cc1nc(-c2cccnc2)sc1-c1nc(C(=O)N(C)C)cs1` [compound 243], the chromatographic logP under setting [2] was found to be 1.67.
Consider `c1cncc(-c2ncc(-c3cnc(-c4cccnc4)s3)s2)c1` [compound 217], for which the chromatographic logP under setting [2] is 1.43.
The same measure, in the same setting: for `CN1CCOC(c2cccc(-c3cnc(-c4cccnc4)s3)n2)=N1` [compound 181] the value was 1.82.
For `CC(=O)c1sc(-c2cccnc2)nc1C` [3-(5-Acetyl-4-methylthiazol-2-yl)pyridinium chloride], the chromatographic logP under setting [1] came to 1.48.
Regarding `O=C1CCCCN1c1cccc(-c2cnc(-c3cccnc3)s2)n1` [compound 204], the chromatographic logP under setting [2] was determined as 1.87.
For the compound `Cc1nc(-c2cccnc2)sc1-c1nc(-c2ccccn2)cs1` [compound 172], the chromatographic logP under setting [2] amounted to 2.53.
On the same count and under the same terms, for `Cc1nc(-c2cccnc2)sc1-c1ccnc(N(C)C)n1` [compound 194] the value was 2.15.
Same read-out and setting: for `Cc1nc(-c2cccnc2)sc1-c1nc(C(=O)N2CCCC2)cs1` [compound 237] the value was 2.05; for `CC(F)(F)c1ccc(-c2cnc(-c3cccnc3)s2)nc1` [compound 223], 2.46.
The same measure, in the same setting: with `Cc1nc(-c2cccnc2)sc1-c1nc(C(=O)NCC(F)(F)F)cs1` [compound 175] the figure was 2.23.
With `CN(C)c1cccc(-c2cnc(-c3cccnc3)s2)n1` [compound 200], the chromatographic logP under setting [2] came to 2.83.
The same measure, in the same setting: with `Cn1nc(-c2cccnc2)cc1-c1cccnc1` [compound 218] the figure was 0.89; with `COc1cc(OC)nc(-c2nc(-c3sc(-c4cccnc4)nc3C)cs2)n1` [compound 176], 3.21.
For the compound `Cc1cc(-c2sc(-c3cncc(F)c3)nc2C)nc(-c2ncccn2)n1` [compound 185], the chromatographic logP under setting [2] was found to be 1.68.
Take `CCOc1ccc(-c2cc(-c3cccnc3)nn2C)cn1` [compound 245]: the chromatographic logP under setting [2] came to 1.46.
Consider `CC(F)(F)c1cccc(-c2cnc(-c3cccnc3)s2)n1` [compound 224], for which the chromatographic logP under setting [2] is 2.77.
On to `CCN(C)C(=O)c1cccc(-c2nnc(-c3cccnc3)s2)n1` [compound 248], for which the chromatographic logP under setting [2] was determined as 1.54.
As to `c1cncc(-c2ncc(-c3cccc(-n4cccn4)n3)s2)c1` [compound 187], the chromatographic logP under setting [2] turned out to be 2.53.
On to `Cc1nc(-c2cccnc2)sc1-c1nc(C(=O)N2CCCO2)cs1` [compound 242], for which the chromatographic logP under setting [2] is 1.61.
With `CN(C)/C=C/C(=O)c1cc(-c2cccnc2)nn1C`, the chromatographic logP under setting [1] was 0.6.
On to `O=C(c1cccc(-c2nnc(-c3cccnc3)s2)n1)N1CCOCC1` [compound 250], for which, under setting [2], the chromatographic logP stood at 1.29.
On the same count and under the same terms, with `CON(C)C(=O)c1cccc(-c2nnc(-c3cccnc3)s2)n1` [compound 249] the figure was 1.29.
Take `COC(=O)c1cc(-c2cccnc2)n(C)n1` (single isomer, unassigned) [drawing 76 isomer 2]: the chromatographic logP under setting [3] came out at 0.77.
Turning to `Cc1nc(-c2cccnc2)sc1-c1nc(C(=O)NCC(F)(F)C(F)F)cs1` [compound 235], under setting [2], the chromatographic logP turned out to be 2.38.
On the same count and under the same terms, with `CON(C)C(=O)c1csc(-c2sc(-c3cccnc3)nc2C)n1` [compound 229] the figure was 1.78.
The same measure, in the same setting: for `Cc1nc(-c2cncnc2)sc1-c1ccnc(-c2ncccn2)n1` [compound 179] the value was 1.06; for `Cn1nc(-c2cccnc2)cc1-c1cccnc1Cl` [compound 226], 0.98.
For `O=C(NCC(F)(F)F)c1cccc(-c2nnc(-c3cccnc3)s2)n1` [compound 241], the chromatographic logP under setting [2] came out at 2.07.
As to `CC(=O)c1sc(-c2cccnc2)nc1C` [1-(4-Methyl-2-pyridin-3-ylthiazol-5-yl)ethanone], under “values given in the preparation examples, formic acid method”, the “logP (HCOOH)” value was determined as 1.5.
On to `Cn1nc(-c2cccnc2)cc1-c1cccc(-c2ncccn2)n1` [compound 192], for which the chromatographic logP under setting [2] came to 1.12.
On the same count and under the same terms, for `Cc1nccn1-c1cccc(-c2cnc(-c3cccnc3)s2)n1` [compound 201] the value was 0.89; for `COCCNC(=S)n1ccc(-c2sc(-c3cccnc3)nc2C)n1` [compound 196], 3.01.
As to `Cc1nc(-c2cccnc2)sc1C(=O)/C=C/N(C)C` [3-Dimethylamino-1-(4-methyl-2-pyridin-3-ylthiazol-5-yl)propenone], under setting [1], the chromatographic logP was determined as 1.35.
For `Cc1nc(-c2cncc(F)c2)sc1-c1ccnc(-c2ncccn2)n1` [compound 186], the chromatographic logP under setting [2] was found to be 1.63.
Take `CCOC(=O)C(=O)NNC(=O)c1cccnc1` [Ethyl oxo-[N′-(pyridin-3-carbonyl)hydrazino]acetate]: the chromatographic logP under setting [1] was -0.13.
As to `Nc1cccc(-c2cnc(-c3cccnc3)s2)n1` [compound 219], the chromatographic logP under setting [2] was 0.92.
The same measure, in the same setting: with `CNc1nc(-c2sc(-c3cccnc3)nc2C)cs1` [compound 174] the figure was 1.76.
Consider `c1cncc(-c2nncs2)c1` [3-[1,3,4]Thiadiazol-2-ylpyridine], for which the chromatographic logP under setting [1] stood at 0.15.
As for `Cc1nc(-c2cccnc2)sc1C(=O)NN(CCO)c1ncccn1` [4-Methyl-2-pyridin-3-ylthiazole-5-carboxylic acid N-(hydroxyethyl)-N-pyrimidin-2-ylhydrazide], the chromatographic logP under setting [1] amounted to 1.08.
As to `c1cncc(-c2ncc(-c3cccc(C4OCCCO4)n3)s2)c1` [compound 203], under setting [2], the chromatographic logP turned out to be 1.99.
Same read-out and setting: with `Cc1nc(-c2cccnc2)sc1-c1nc(C(=O)NC(C)C2CC2)cs1` (stereo not shown) [compound 233] the figure was 2.69.
With `CN(C)C(=O)c1cccc(-c2nnc(-c3cccnc3)s2)n1` [compound 221], the chromatographic logP under setting [2] came to 1.34.
Regarding `c1cncc(-c2nccs2)c1` [3-Thiazol-2-ylpyridine], under setting [1], the chromatographic logP was 0.62.
Turning to `CS(=O)(=O)c1cccc(-c2cnc(-c3cccnc3)s2)n1` [compound 184], the chromatographic logP under setting [2] is 1.44.
As to `Brc1cccc(C2=NOCCO2)n1` [3-(6-Bromopyridin-2-yl)-5,6-dihydro-[1,4,2]dioxazine], under setting [1], the chromatographic logP is 1.37.
For the compound `COc1ccc(-c2cc(-c3cccnc3)nn2C)cn1` [compound 246], under setting [2], the chromatographic logP came to 1.14.
`Cc1nc(-c2cccnc2)sc1Br` [3-(5-Bromo-4-methylthiazol-2-yl)pyridine]: under setting [1], the chromatographic logP is 2.3.
For `O=C1CCCN1c1cccc(-c2cnc(-c3cccnc3)s2)n1` [compound 206], under setting [2], the chromatographic logP came out at 2.11.
Same read-out and setting: with `Cn1nc(-c2cccnc2)cc1-c1cccc(Br)n1` [compound 190] the figure was 1.67; with `c1cncc(-c2ncc(-c3cccc(-c4nccnn4)n3)s2)c1` [compound 180], 1.43.
On the same count and under the same terms, for `c1cncc(-c2ncc(-c3cccc(-c4ncon4)n3)s2)c1` [compound 182] the value was 1.74; for `c1cncc(-c2ncc(-c3cccc(-c4nc[nH]n4)n3)s2)c1` [compound 183], 1.24; for `Cc1nc(-c2cccnc2)sc1-c1nc(C(=O)N(C)CC(F)(F)F)cs1` [compound 238], 2.53.
Still for that read-out and setting: with `Cc1ccn(-c2cccc(-c3cnc(-c4cccnc4)s3)n2)n1` [compound 189] the figure was 2.85.
For the compound `Cc1nc(-c2cccnc2)sc1-c1cccc(C#N)n1` [6-(4-Methyl-2-pyridin-3-ylthiazol-5-yl)pyridine-2-carbonitrile], the chromatographic logP under setting [1] amounted to 2.11.
For the compound `Cc1nc(-c2cccnc2)sc1-c1nc(C(=O)N2CCOCC2)cs1` [compound 247], the chromatographic logP under setting [2] came out at 1.66.
As for `COC(=O)c1cccc(-c2cnc(-c3cccnc3)s2)n1` [compound 244], under setting [2], the chromatographic logP is 1.77.
For the compound `Cc1nc(-c2cccnc2)sc1-c1nc(C(=O)NC(C)(C)C)cs1` [compound 234], the chromatographic logP under setting [2] worked out at 2.93.
Still for that read-out and setting: for `Cn1nc(-c2cccnc2)cc1-c1cncc(F)c1` [compound 228] the value was 0.89.
For `CN(C)/C=C/C(=O)c1nnc(-c2cccnc2)s1` [(3-Dimethylamino-1-(5-pyridin-3-yl-[1,3,4]thiadiazol-2-yl)propenone], under setting [1], the chromatographic logP came to 1.05.
`Cc1nc(-c2cccnc2)sc1-c1ccn(-c2nc(Cl)ns2)n1` [compound 195]: under setting [2], the chromatographic logP turned out to be 3.76.
As for `COC(=O)c1cc(-c2cccnc2)nn1C` (single isomer, unassigned) [drawing 76 isomer 1], under setting [3], the chromatographic logP was 0.84.
As for `Cc1nc(-c2cccnc2)sc1-c1cc[nH]n1` [3-[4-Methyl-5-(1H-pyrazol-3-yl)thiazol-2-yl]pyridine], the chromatographic logP under setting [1] turned out to be 1.31.
For the compound `Cc1cccc(-c2csc(-c3sc(-c4cccnc4)nc3C)n2)n1` [compound 173], under setting [2], the chromatographic logP was 2.66.

These data come from patent US9451775B2, “Heterocyclic compounds as pesticides” (Bayer Intellectual Property GmbH, priority 2008, dated 2016).
